Assay results published in ChEMBL document CHEMBL4706703, “Novel 3-benzylidene/benzylphthalide Mannich base derivatives as potential multifunctional agents for the treatment of Alzheimer's disease” (Bioorg Med Chem, 2021).

Columns and labels:
[1] = target: Amyloid-beta precursor protein (Homo sapiens) (UniProt P05067); experiment: Disaggregation of self-induced amyloid beta (1 to 42) (unknown origin) preformed fibrils at 25 uM measured after 24 hrs by thioflavin-T fluorescence assay relative to control
[2] = Inhibition of Cu2+-induced amyloid beta (1 to 42 residues) aggregation at 25 uM after 24 hrs by thioflavin T-based fluorescence assay relative to control
Plasma = experiment: Antiplatelet activity in rat platelet-rich plasma assessed as inhibition of ADP-induced platelet aggregation at 33 uM preincubated for 30 mins followed by ADP addition measured within 5 mins by aggregometry relative to control; format: functional; conditions: time 30-35 min
[3] = target: butyrylcholinesterase (BuChE) (Rattus norvegicus, UniProt Q9JKC1); experiment: Inhibition of rat serum BuChE at 10 uM using butyrylthiocholine iodide as substrate incubated for 15 mins by Ellman's method relative to control; format: cell-free; conditions: probe butyrylthiocholine iodide
[4] = target: T1, Amine oxidase [flavin-containing] B (Homo sapiens, UniProt P27338); experiment: Inhibition of recombinant human MAOB at 10 uM using kynuramine as substrate preincubated for 30 mins followed by substrate addition and measured after 30 mins by fluorescence assay relative to control; conditions: 0.5 h
T1 sequence (P27338 whole entry): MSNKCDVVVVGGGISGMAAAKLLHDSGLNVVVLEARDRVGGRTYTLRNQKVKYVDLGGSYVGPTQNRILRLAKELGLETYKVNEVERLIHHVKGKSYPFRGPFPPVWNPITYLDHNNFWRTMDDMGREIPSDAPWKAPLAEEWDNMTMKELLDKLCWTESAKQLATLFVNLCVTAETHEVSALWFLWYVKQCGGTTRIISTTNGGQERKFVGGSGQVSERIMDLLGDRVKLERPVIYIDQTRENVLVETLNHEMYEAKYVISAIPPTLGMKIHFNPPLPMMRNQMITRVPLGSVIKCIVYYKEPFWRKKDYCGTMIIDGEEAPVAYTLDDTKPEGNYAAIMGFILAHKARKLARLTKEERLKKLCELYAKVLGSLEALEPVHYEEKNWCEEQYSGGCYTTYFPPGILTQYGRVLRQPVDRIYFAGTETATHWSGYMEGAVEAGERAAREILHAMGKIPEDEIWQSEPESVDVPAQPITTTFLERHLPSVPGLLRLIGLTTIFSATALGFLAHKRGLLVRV

MAO-A = target: T2, MAO-A (Homo sapiens, UniProt P21397); experiment: Inhibition of recombinant human MAOA at 10 uM using kynuramine as substrate preincubated for 30 mins followed by substrate addition and measured after 30 mins by fluorescence assay relative to control; conditions: probe kynuramine, time 60 min
T2 sequence (P21397 whole entry): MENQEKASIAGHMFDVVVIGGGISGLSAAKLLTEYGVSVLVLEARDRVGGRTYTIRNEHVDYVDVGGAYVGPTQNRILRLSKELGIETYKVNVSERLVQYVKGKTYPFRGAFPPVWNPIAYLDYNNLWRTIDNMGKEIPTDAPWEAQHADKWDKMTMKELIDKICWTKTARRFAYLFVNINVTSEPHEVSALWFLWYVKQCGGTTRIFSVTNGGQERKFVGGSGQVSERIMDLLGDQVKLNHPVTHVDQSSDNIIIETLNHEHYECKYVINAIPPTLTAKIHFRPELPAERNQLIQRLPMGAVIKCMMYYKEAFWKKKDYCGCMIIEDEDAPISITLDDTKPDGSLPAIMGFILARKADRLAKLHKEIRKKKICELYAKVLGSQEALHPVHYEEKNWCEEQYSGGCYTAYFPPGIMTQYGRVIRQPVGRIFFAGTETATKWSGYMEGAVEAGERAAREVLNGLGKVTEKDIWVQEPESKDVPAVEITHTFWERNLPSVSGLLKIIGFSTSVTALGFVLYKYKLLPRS

[5] = target: Amyloid-beta precursor protein (Homo sapiens) (UniProt P05067); experiment: Inhibition of amyloid beta (1 to 42) (unknown origin) self aggregation at 25 uM after 24 hrs by thioflavin-T fluorescence method relative to control
Acetylcholinesterase [6] = target: Acetylcholinesterase (Electrophorus electricus, UniProt O42275); experiment: Inhibition of Electrophorus electricus AChE using acetylthiocholine iodide as substrate incubated for 15 mins by Ellman's method
[7] = Antioxidant activity assessed as trolox equivalent of AAPH radical scavenging activity measured every min for 90 mins by ORAC-FL assay; format: functional
Acetylcholinesterase [8] = target: Acetylcholinesterase (Homo sapiens, UniProt P22303); experiment: Inhibition of human AChE using acetylthiocholine iodide as substrate incubated for 15 mins by Ellman's method
[9] = target: Acetylcholinesterase (Electrophorus electricus) (UniProt O42275); experiment: Inhibition of Electrophorus electricus AChE at 10 uM using acetylthiocholine iodide as substrate incubated for 15 mins by Ellman's method relative to control
Sequence of Acetylcholinesterase (Electrophorus electricus) (O42275 24-633 limits assumed): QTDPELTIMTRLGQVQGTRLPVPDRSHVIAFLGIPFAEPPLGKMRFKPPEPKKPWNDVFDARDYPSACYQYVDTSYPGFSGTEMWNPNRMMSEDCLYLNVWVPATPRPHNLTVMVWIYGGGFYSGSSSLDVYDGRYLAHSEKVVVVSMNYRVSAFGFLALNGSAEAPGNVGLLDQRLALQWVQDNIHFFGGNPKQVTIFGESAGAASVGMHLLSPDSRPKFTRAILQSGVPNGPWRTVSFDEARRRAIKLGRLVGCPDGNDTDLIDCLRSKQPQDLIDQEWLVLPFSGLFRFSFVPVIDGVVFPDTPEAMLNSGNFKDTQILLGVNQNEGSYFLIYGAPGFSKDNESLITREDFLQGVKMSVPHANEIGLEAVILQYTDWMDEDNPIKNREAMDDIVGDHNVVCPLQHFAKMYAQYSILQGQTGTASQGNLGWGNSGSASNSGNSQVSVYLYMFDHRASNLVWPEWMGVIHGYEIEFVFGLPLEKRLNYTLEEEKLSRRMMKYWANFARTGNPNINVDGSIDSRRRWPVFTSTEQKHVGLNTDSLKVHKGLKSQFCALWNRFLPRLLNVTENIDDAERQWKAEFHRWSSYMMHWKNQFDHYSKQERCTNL

Sequence of Acetylcholinesterase (Electrophorus electricus, UniProt O42275) (O42275 whole entry): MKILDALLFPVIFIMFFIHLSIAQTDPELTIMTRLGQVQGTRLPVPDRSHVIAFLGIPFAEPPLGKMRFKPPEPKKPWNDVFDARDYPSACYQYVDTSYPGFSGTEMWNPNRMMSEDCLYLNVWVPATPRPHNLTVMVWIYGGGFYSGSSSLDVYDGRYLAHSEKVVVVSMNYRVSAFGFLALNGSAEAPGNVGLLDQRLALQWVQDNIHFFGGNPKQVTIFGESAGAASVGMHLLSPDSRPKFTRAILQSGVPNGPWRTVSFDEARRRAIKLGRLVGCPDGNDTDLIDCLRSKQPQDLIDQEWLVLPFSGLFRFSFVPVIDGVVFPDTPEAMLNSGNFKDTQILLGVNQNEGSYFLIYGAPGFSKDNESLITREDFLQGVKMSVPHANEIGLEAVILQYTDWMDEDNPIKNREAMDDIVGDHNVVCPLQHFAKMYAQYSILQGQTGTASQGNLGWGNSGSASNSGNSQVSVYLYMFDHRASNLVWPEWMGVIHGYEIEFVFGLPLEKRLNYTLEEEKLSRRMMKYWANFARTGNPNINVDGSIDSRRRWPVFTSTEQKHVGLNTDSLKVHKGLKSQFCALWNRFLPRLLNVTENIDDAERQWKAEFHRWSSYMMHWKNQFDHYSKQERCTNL
Sequence of Amyloid-beta precursor protein (Homo sapiens) (P05067 whole entry, the tested form may be a part): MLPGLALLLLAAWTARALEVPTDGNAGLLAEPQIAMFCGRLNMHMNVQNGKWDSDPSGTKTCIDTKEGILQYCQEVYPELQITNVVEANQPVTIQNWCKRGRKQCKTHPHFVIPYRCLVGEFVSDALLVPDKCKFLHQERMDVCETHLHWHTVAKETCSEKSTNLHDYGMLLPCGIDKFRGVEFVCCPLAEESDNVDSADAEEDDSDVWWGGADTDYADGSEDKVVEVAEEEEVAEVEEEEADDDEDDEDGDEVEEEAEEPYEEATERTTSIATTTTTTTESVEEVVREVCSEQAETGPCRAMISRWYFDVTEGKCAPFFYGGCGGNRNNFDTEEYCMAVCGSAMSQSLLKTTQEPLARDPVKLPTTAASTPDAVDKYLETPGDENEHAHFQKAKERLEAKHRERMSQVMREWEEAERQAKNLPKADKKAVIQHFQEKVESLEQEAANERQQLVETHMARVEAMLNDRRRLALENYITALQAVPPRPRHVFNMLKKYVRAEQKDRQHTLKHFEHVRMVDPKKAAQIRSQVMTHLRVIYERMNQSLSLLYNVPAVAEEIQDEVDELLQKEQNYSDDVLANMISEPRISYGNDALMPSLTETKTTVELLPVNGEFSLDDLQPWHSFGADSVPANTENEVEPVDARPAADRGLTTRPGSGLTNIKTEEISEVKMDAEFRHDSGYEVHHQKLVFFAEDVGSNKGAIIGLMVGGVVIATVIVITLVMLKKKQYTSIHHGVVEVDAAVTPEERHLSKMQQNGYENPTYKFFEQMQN
Sequence of butyrylcholinesterase (BuChE) (Q9JKC1 whole entry): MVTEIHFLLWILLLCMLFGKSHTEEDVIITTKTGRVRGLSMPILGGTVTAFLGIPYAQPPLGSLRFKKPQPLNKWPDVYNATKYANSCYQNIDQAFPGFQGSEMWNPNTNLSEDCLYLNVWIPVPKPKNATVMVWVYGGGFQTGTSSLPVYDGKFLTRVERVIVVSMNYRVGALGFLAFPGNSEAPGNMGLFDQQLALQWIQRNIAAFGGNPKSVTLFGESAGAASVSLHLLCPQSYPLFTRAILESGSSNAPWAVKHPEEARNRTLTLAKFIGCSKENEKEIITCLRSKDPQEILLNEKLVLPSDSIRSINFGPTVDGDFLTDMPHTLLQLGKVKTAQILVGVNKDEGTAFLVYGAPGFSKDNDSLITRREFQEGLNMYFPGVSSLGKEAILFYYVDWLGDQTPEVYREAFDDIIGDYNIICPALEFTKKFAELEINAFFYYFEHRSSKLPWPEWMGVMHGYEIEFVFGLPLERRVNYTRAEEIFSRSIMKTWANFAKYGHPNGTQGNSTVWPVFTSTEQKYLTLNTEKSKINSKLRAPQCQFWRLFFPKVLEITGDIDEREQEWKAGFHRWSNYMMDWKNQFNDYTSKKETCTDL
Sequence of Acetylcholinesterase (Homo sapiens, UniProt P22303) (P22303 whole entry): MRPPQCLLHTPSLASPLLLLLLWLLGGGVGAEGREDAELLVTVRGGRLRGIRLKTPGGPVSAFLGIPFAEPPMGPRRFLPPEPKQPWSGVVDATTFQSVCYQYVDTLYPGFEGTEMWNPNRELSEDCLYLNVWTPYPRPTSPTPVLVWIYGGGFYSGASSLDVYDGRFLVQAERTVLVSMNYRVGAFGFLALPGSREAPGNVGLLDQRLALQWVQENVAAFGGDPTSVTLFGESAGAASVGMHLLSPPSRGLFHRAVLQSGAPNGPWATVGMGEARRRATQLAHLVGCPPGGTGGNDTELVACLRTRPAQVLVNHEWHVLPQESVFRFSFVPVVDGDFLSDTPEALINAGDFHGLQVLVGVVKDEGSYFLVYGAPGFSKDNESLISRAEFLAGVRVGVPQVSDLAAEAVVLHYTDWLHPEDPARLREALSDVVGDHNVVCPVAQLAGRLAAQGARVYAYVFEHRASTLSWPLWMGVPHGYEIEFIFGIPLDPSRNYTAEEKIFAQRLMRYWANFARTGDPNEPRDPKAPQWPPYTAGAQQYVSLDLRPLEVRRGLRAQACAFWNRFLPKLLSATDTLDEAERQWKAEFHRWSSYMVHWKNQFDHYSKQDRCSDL

SMILES | Activity [1] | inhibition [2] | inhibition at 33 µM (Plasma) | inhibition at […], 10 µM [3] | inhibition at 10 µM [4] | inhibition at 0.5 h, 10 µM (MAO-A) | inhibition [5] | IC50 (Acetylcholinesterase [6]) | Activity [7] | IC50 (Acetylcholinesterase [8]) | inhibition [9]
COc1cc(/C=C/C(=O)CC(=O)/C=C/c2ccc(O)c(OC)c2)ccc1O | 24.3% | 58% |  |  |  |  |  |  |  |  | 
CC(=O)Oc1ccccc1C(=O)O [ASPIRIN] |  |  | 12.4% |  |  |  |  |  |  |  | 
CCN(CC)c1ccc(/C=C2/OC(=O)c3cc(OC)c(OC)cc32)cc1O |  |  | < 5% | 5.7% | 49% | 48% | 26.1% | 26 nM | 4.48 equiv |  | 
COc1cc2c(cc1OC)C(Cc1ccc(N3CCOCC3)c(O)c1)OC2=O (stereo unspecified) |  | 9.5% |  | < 5% | 34.7% | 8.7% | 29.5% | 8260 nM | 2.42 equiv |  | 
COc1cc2c(cc1OC)/C(=C/c1ccc(N3CCCC3)c(O)c1)OC2=O |  |  | < 5% | 9.4% | 28.3% | 5.1% | 23% | 31 nM | 4.1 equiv |  | 
COc1cc2c(cc1OC)/C(=C\c1ccc(N3CCCCC3)c(O)c1)OC2=O |  |  | < 5% | 26.2% | 16.1% | 49.1% | 22.5% | 8.83 nM | 1.94 equiv | 12 nM | 
CCN(CC)c1ccc(/C=C2\OC(=O)c3cc(OC)c(OC)cc32)cc1O |  |  | 12.4% | < 5% | 39.4% | < 5% | 28.6% | 72 nM | 2.7 equiv |  | 
CCN(CC)c1ccc(CC2OC(=O)c3cc(OC)c(OC)cc32)cc1O (stereo unspecified) |  | 14.3% | < 5% | < 5% | < 5% | < 5% | 30.1% | 2210 nM | 2.14 equiv |  | 
CCN(CC)c1cc(/C=C2/OC(=O)c3cc(OC)c(OC)cc32)ccc1O |  |  | 53.8% | 25.1% | 24.9% | < 5% | 33.6% | 0.307 nM | 2.62 equiv | 1.28 nM | 
COc1cc2c(cc1OC)/C(=C/c1ccc(N3CCCCC3)c(O)c1)OC2=O |  |  | 15.4% | < 5% | < 5% | 6.1% | 24.6% | 66 nM | 1.46 equiv | 50 nM | 
COc1cc2c(cc1OC)C(Cc1ccc(N3CCCC3)c(O)c1)OC2=O (stereo unspecified) |  | 18.5% | < 5% | 19.8% | 14.6% | < 5% | 31.1% | 960 nM | 2.54 equiv |  | 
COc1cc2c(cc1OC)/C(=C/c1cccc(O)c1N1CCOCC1)OC2=O |  |  |  | < 5% | 27.9% | 6.6% |  |  | 1.48 equiv |  | 15.1%
COc1cc2c(cc1OC)C(Cc1ccc(N3CCCCC3)c(O)c1)OC2=O (stereo unspecified) |  | 12.8% | < 5% | 10.3% | 8.6% | 14.8% | 28.9% | 33 nM | 2.42 equiv |  | 
COc1cc2c(cc1OC)C(Cc1cccc(O)c1N1CCCCC1)OC2=O (stereo unspecified) |  |  |  | < 5% | 15.6% | < 5% |  |  | 1.44 equiv |  | 12.6%
COc1cc2c(cc1OC)/C(=C\c1ccc(N3CCCC3)c(O)c1)OC2=O |  |  | 9.8% | 16.5% | 27.8% | 32% | 30.6% | 660 nM | 2.82 equiv |  | 
